In ChEMBL document CHEMBL6134930, “Discovery of AB801, a Potent and Selective Inhibitor of AXL Receptor Tyrosine Kinase for Use in Cancer Therapy” (J Med Chem, 2025):

Assays:
[1] = Metabolic stability in rat hepatocytes assessed as intrinsic clearance measured per 10^6 cells; assay type: ADME, cell-based, Hepatocyte; conditions: read-out: CLH
[2] = Clearance in Beagle dog at 1 mg/kg, iv measured up to 8 hrs by LC-MS/MS analysis; assay type: ADME, organism-based, Canis lupus familiaris; conditions: in vivo
[3] = AUCinfinity in CD-1 mouse at 1 mg/kg, iv measured up to 24 hrs by LC-MS/MS analysis; assay type: ADME, organism-based; conditions: in vivo
[4] = molecular target: T1, Tyrosine-protein kinase receptor UFO (Homo sapiens, UniProt P30530); experiment: Binding affinity to AXL (unknown origin) expressed in HEK293 cells transfected with Nano-Luc fusion vector assessed as dissociation constant by measuring decrease in BRET signal preincubated for 1 hr followed by K-5 NanoBRET tracer addition incubated for 2 hrs; assay type: cell-based
T1 sequence (P30530 whole entry): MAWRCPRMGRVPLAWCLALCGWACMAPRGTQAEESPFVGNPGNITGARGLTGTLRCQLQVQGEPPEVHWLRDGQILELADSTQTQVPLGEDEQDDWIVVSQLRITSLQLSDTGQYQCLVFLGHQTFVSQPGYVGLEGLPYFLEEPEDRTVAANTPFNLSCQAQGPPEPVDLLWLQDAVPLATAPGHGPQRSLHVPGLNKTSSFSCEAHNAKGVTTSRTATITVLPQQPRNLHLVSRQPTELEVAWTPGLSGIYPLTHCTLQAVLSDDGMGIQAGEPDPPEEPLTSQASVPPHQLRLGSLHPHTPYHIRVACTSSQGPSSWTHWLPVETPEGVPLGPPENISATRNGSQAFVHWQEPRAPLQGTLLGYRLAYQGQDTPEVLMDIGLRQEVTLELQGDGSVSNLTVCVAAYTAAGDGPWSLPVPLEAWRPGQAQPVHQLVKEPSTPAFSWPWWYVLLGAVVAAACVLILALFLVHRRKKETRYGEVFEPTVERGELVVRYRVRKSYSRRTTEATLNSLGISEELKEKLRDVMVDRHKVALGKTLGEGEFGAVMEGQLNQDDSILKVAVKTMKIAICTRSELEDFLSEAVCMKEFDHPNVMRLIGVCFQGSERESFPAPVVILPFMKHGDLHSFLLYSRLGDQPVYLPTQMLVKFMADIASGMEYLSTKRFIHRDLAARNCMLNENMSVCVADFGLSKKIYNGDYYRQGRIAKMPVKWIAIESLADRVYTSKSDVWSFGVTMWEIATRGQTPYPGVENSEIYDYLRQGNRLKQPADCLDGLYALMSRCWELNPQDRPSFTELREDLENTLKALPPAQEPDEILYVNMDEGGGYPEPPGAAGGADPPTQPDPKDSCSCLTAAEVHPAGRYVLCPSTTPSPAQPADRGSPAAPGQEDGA

[5] = AUC (0 to last) in CD-1 mouse at 1 mg/kg, iv measured up to 24 hrs by LC-MS/MS analysis; assay type: ADME, organism-based; conditions: in vivo
[6] = Volume of distribution at steady state in Sprague-Dawley rat at 1 mg/kg, iv measured up to 8 hrs by LC-MS/MS analysis; assay type: ADME, organism-based; conditions: in vivo, read-out: Vdss
[7] = Terminal half life in Sprague-Dawley rat at 1 mg/kg, iv measured up to 8 hrs by LC-MS/MS analysis; assay type: ADME, organism-based; conditions: in vivo, read-out: beta t1/2 (converted)
[8] = AUC (0 to last) in Sprague-Dawley rat at 1 mg/kg, iv measured up to 8 hrs by LC-MS/MS analysis; assay type: ADME, organism-based; conditions: in vivo
[9] = Clearance in Sprague-Dawley rat at 1 mg/kg, iv measured up to 8 hrs by LC-MS/MS analysis; assay type: ADME, organism-based; conditions: in vivo
[10] = AUC (0 to last) in cynomolgus monkey at 1 mg/kg, iv measured up to 8 hrs by LC-MS/MS analysis; assay type: ADME, organism-based, Macaca fascicularis; conditions: in vivo
[11] = Clearance in cynomolgus monkey at 1 mg/kg, iv measured up to 8 hrs by LC-MS/MS analysis; assay type: ADME, organism-based, Macaca fascicularis; conditions: in vivo
[12] = Volume of distribution at steady state in CD-1 mouse at 1 mg/kg, iv measured up to 24 hrs by LC-MS/MS analysis; assay type: ADME, organism-based; conditions: in vivo, read-out: Vdss
[13] = AUCinfinity in cynomolgus monkey at 1 mg/kg, iv measured up to 8 hrs by LC-MS/MS analysis; assay type: ADME, organism-based, Macaca fascicularis; conditions: in vivo
[14] = AUCinf in Sprague-Dawley rat at 2 mg/kg, po measured up to 8 hrs by LC-MS/MS analysis; assay type: ADME, organism-based; conditions: in vivo
[15] = molecular target: T1, Tyrosine-protein kinase receptor UFO; experiment: Inhibition of human AXL measured after 150 mins by ATP-competitive HTRF based biochemical assay
[16] = Metabolic stability in human hepatocytes assessed as intrinsic clearance measured per 10^6 cells; assay type: ADME, cell-based, Hepatocyte; conditions: read-out: CLH
[17] = Terminal half life in Beagle dog at 1 mg/kg, iv measured up to 8 hrs by LC-MS/MS analysis; assay type: ADME, organism-based, Canis lupus familiaris; conditions: in vivo, read-out: beta t1/2 (converted)
[18] = Terminal half life in cynomolgus monkey at 1 mg/kg, iv measured up to 8 hrs by LC-MS/MS analysis; assay type: ADME, organism-based, Macaca fascicularis; conditions: in vivo, read-out: beta t1/2 (converted)
[19] = AUCinfinity in Beagle dog at 1 mg/kg, iv measured up to 8 hrs by LC-MS/MS analysis; assay type: ADME, organism-based, Canis lupus familiaris; conditions: in vivo
[20] = AUC (0 to last) in Beagle dog at 1 mg/kg, iv measured up to 8 hrs by LC-MS/MS analysis; assay type: ADME, organism-based, Canis lupus familiaris; conditions: in vivo
[21] = Clearance in CD-1 mouse at 1 mg/kg, iv measured up to 24 hrs by LC-MS/MS analysis; assay type: ADME, organism-based; conditions: in vivo
[22] = Terminal half life in CD-1 mouse at 1 mg/kg, iv measured up to 24 hrs by LC-MS/MS analysis; assay type: ADME, organism-based; conditions: in vivo, read-out: beta t1/2 (converted)
[23] = Volume of distribution at steady state in Beagle dog at 1 mg/kg, iv measured up to 8 hrs by LC-MS/MS analysis; assay type: ADME, organism-based, Canis lupus familiaris; conditions: in vivo, read-out: Vdss
[24] = Efflux ratio in human Caco-2 cells; assay type: ADME, cell-based
[25] = Volume of distribution at steady state in cynomolgus monkey at 1 mg/kg, iv measured up to 8 hrs by LC-MS/MS analysis; assay type: ADME, organism-based, Macaca fascicularis; conditions: in vivo, read-out: Vdss
[26] = AUCinfinity in Sprague-Dawley rat at 1 mg/kg, iv measured up to 8 hrs by LC-MS/MS analysis; assay type: ADME, organism-based; conditions: in vivo

CN(C)C(=O)c1ccc(-c2n[nH]c3ncc(-c4ccc5c(c4)CC[C@@H](N4C6COCC4C6)CC5)cc23)cc1
hepatocyte CLint [1]: 20 µL/min/1e6 cells | clearance [2]: 33.3 mL/min/kg | AUC(0-inf) [3]: 430 ng·h/mL | Kd [4]: 6.8 nM | AUC(0-t) at 24 h [5]: 13 ng·h/mL | Vd [6]: 0.34 L/kg | half-life [7]: 2.2 h | AUC(0-t) at 8 h [8]: 6100 ng·h/mL | clearance [9]: 2.67 mL/min/kg | AUC(0-t) at 8 h [10]: 210 ng·h/mL | clearance [11]: 76.7 mL/min/kg | Vd [12]: 3.2 L/kg | AUC(0-inf) [13]: 230 ng·h/mL | AUC(0-inf) [14]: 4300 ng·h/mL | IC50 [15]: 5.3 nM | hepatocyte CLint [16]: 4.6 µL/min/1e6 cells | half-life [17]: 3.8 h | half-life [18]: 2.3 h | AUC(0-inf) [19]: 560 ng·h/mL | AUC(0-t) at 8 h [20]: 540 ng·h/mL | clearance [21]: 38.3 mL/min/kg | half-life [22]: 8.1 h | Vd [23]: 8.1 L/kg | efflux ratio [24]: 11 | Vd [25]: 13 L/kg | AUC(0-inf) [26]: 6400 ng·h/mL
